Measured values from PubChem BioAssay (NCI).
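How tested: cells in 96-well plates exposed to compound for 48 hours at five concentrations. At the GI50, growth is halved. TGI is the concentration that stops growth completely.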

Tests used:
Experiment in all cases: DTP human tumour cell line panel, 48 h
[1] = system: OVCAR-4 ovarian
[2] = system: MDA-MB-231 breast
[3] = system: NCI-H23 lung
[4] = system: SK-OV-3 ovarian
[5] = system: NCI/ADR-RES ovarian
[6] = system: K-562 leukemia
[7] = system: KM12 colon
[8] = system: U251 CNS
[9] = system: SF-295 CNS
[10] = system: BT-549 breast
[11] = system: LOX IMVI melanoma
[12] = system: 786-0 renal
[13] = system: MOLT-4 leukemia
[14] = system: OVCAR-3 ovarian
[15] = system: MALME-3M melanoma
[16] = system: SF-539 CNS
[17] = system: RXF 393 renal
[18] = system: CCRF-CEM leukemia
[19] = system: HOP-62 NSCLC
[20] = system: HOP-92 NSCLC
[21] = system: OVCAR-8 ovarian
[22] = system: SR leukemia
[23] = system: A498 renal
[24] = system: NCI-H226 lung
[25] = system: SNB-75 CNS
[26] = system: IGROV1 ovarian
[27] = system: HCT-116 colon
[28] = system: SNB-19 CNS
[29] = system: HCC-2998 colon
[30] = system: TK-10 renal
[31] = system: HS 578T breast
[32] = system: A549 NSCLC
[33] = system: DU-145 prostate
[34] = system: SK-MEL-28 melanoma
[35] = system: SF-268 CNS
[36] = system: SW-620 colon
[37] = system: PC-3 prostate
[38] = system: UACC-257 melanoma
[39] = system: UACC-62 melanoma
[40] = system: ACHN renal
[41] = system: UO-31 renal
[42] = system: COLO 205 colon

Structure (SMILES): COc1cc2c(C#N)n3c(c2cc1OC)C(=O)C(c1ccccc1)Oc1ccccc1-3 (stereo unspecified)
- GI50 [1]: 2.89 µM
- TGI [1]: > 100 µM
- GI50 [2]: 4.05 µM
- TGI [2]: 68.6 µM
- GI50 [3]: 3.04 µM
- TGI [3]: > 100 µM
- GI50 [4]: 21.1 µM
- TGI [4]: > 100 µM
- GI50 [5]: 3.05 µM
- TGI [5]: > 100 µM
- GI50 [6]: 3.08 µM
- TGI [6]: > 100 µM
- GI50 [7]: 3.36 µM
- TGI [7]: > 100 µM
- GI50 [8]: 2.77 µM
- TGI [8]: > 100 µM
- GI50 [9]: 4.1 µM
- TGI [9]: > 100 µM
- GI50 [10]: 1.97 µM
- TGI [10]: 5.54 µM
- GI50 [11]: 3.18 µM
- TGI [11]: > 100 µM
- GI50 [12]: 5.7 µM
- TGI [12]: 39.1 µM
- GI50 [13]: 5.37 µM
- TGI [13]: > 100 µM
- GI50 [14]: 4.48 µM
- TGI [14]: > 100 µM
- GI50 [15]: > 100 µM
- TGI [15]: > 100 µM
- GI50 [16]: 19.8 µM
- TGI [16]: > 100 µM
- GI50 [17]: 3.29 µM
- TGI [17]: 19.5 µM
- GI50 [18]: 2.72 µM
- TGI [18]: 8.51 µM
- GI50 [19]: 3.64 µM
- TGI [19]: > 100 µM
- GI50 [20]: 1.46 µM
- TGI [20]: 5.52 µM
- GI50 [21]: 2.76 µM
- TGI [21]: > 100 µM
- GI50 [22]: 2.58 µM
- TGI [22]: > 100 µM
- GI50 [23]: 1.85 µM
- TGI [23]: 9.15 µM
- GI50 [24]: 2.9 µM
- TGI [24]: > 100 µM
- GI50 [25]: 4.39 µM
- TGI [25]: 24.6 µM
- GI50 [26]: 7.41 µM
- TGI [26]: > 100 µM
- GI50 [27]: 3.23 µM
- TGI [27]: > 100 µM
- GI50 [28]: 3.53 µM
- TGI [28]: > 100 µM
- GI50 [29]: > 100 µM
- TGI [29]: > 100 µM
- GI50 [30]: 3.35 µM
- TGI [30]: 21.3 µM
- GI50 [31]: 4.62 µM
- TGI [31]: 65.5 µM
- GI50 [32]: 2.87 µM
- TGI [32]: > 100 µM
- GI50 [33]: 91 µM
- TGI [33]: > 100 µM
- GI50 [34]: > 100 µM
- TGI [34]: > 100 µM
- GI50 [35]: 3.32 µM
- TGI [35]: > 100 µM

Structure (SMILES): NC(N)=N/N=C/c1c(-c2ccc(Cl)c(Cl)c2Cl)nc2sccn12
- TGI [2]: 2.47 µM
- TGI [3]: 2.65 µM
- TGI [4]: 3.33 µM
- TGI [36]: 3.07 µM
- TGI [9]: 3.29 µM
- TGI [37]: > 100 µM
- TGI [38]: 3.02 µM
- TGI [23]: 2.3 µM
- TGI [39]: 2.81 µM
- TGI [24]: 3.56 µM
- TGI [40]: > 100 µM
- TGI [41]: 2.82 µM
- TGI [30]: 2.7 µM
- TGI [42]: 2.73 µM
- TGI [33]: 3.12 µM
- TGI [34]: 3.12 µM
